This test relates to C. albicans (CA-1, Strain SLU-1). Kind of test: Radial diffusion assay. Type of test: cell-based, Candida albicans. The settings on record: for C. albicans pmol/30 mm^2 zone: pmoles of peptide added to well to achieve a 30 mm^2 zone, PROBIT analysis, crude or purified (P′) peptide; for Plate Assay (nmol), pure peptide activity: HPLC-purified peptide; for Plate Assay (nmol), pure peptide activity / Plate Assay (nmol), crude peptide activity: nanomoles required to achieve a net 30 mm^2 zone (log titration curve). The procedure: In the radial diffusion assay procedures, the CA-1 cultures and peptide solutions were prepared as in the broth assay procedure described above. Ten mL of molten underlayer agarose comprising 3% Sabouraud Dextrose broth, 1% agarose (Pharmacia, Piscataway, N.J.), 0.02% Tween 20, and 10 mM sodium phosphate at pH 7.4, was added to polystyrene tubes and maintained in a 56° C. water bath until the addition of yeast. Tubes were cooled to approximately 45° C., yeast were added to give a final concentration of 1×10^6 CFU/mL, and the tubes were mixed again by inverting. The contents were poured into level square petri dishes and distributed evenly. […] A series of wells were punched into the hardened agarose using a sterile 3 mm punch attached to a vacuum apparatus.
Peptides to be assayed were 2-fold serially diluted in Dulbecco's PBS (D-PBS) starting from a concentration of approximately 1 mg/mL. Five μL of each dilution were added to each well and the plates were incubated at 37° C. for 3 hours. An overlayer of 10 mL of molten agarose comprising 6% Sabouraud Dextrose broth, 1% agarose, and 10 mM sodium phosphate, pH 7.4, (at approximately 45° C.) was then added and plates were incubated overnight at 37° C. Following this overnight incubation, a dilute Coomassie solution was poured into the plates and allowed to stain for 24 hours.
Clear zones of growth inhibition around each well were measured with calipers. The actual area of growth inhibition (mm^2) was calculated by subtracting the area of the well. Table 1 below sets out the results of the radial diffusion assays for tested peptides in terms of the number of picomoles (pmol) of peptide required to establish a 30 mm^2 area of growth inhibition calculated by PROBIT analysis (e.g., calculated from regression of the linear portion of log-concentration dose-response curve, log pmol/well vs. net area of inhibition).

The values that follow come from US6664231B1, “Anti-fungal peptides” (priority 1993, dated 2003).

Square brackets hold non-standard residues; d marks the D form. Peptide text beside a SMILES is read from it. Phe(4-NH2) = Nc1ccc(C[C@H](N)C(=O)O)cc1; 1Nal = N[C@@H](Cc1cccc2ccccc12)C(=O)O; NMeL = CN[C@@H](CC(C)C)C(=O)O Bounds are passed on as bounds.

For the molecule H-KVKWLIQ-NH2 [XMP.306], the “C. albicans pmol/30 mm^2 zone” value is given as >10,485 pmol/30 mm^2 zone.

With H-KVKWLIQLFHK-NH2 [Peptide 288], the “Plate Assay (nmol), pure peptide activity” value is listed as 0.279 nmol and the “Plate Assay (nmol), crude peptide activity” value worked out at 3.639 nmol.

As to H-KSKVGWLIQLFAKK-NH2 [XMP.42], the “C. albicans pmol/30 mm^2 zone” value worked out at 548 pmol/30 mm^2 zone.

As for H-SKVKWLIQL-NH2 [Peptide 294], the “Plate Assay (nmol), crude peptide activity” value is reported as more than 4.634 nmol.

Regarding H-KVKWLIQLF-NH2 [XMP.295], the “C. albicans pmol/30 mm^2 zone” value is on record as >1,977 pmol/30 mm^2 zone. For the same molecule, the “C. albicans pmol/30 mm^2 zone” value (listed as XMP.295P′) is >2,612 pmol/30 mm^2 zone.

Consider H-KSKVGWLIQLAHKK-NH2 [XMP.41], for which the “C. albicans pmol/30 mm^2 zone” value stood at 734 pmol/30 mm^2 zone.

For the molecule `CC[C@H](C)[C@H](NC(=O)[C@H](CC(C)C)NC(=O)[C@H](Cc1c[nH]c2ccccc12)NC(=O)CNC(=O)[C@@H](NC(=O)[C@H](CCCCN)NC(=O)[C@H](CO)NC(=O)[C@@H](N)CCCCN)C(C)C)C(=O)N[C@@H](CCC(N)=O)C(=O)N[C@@H](CC(C)C)C(=O)N[C@@H](Cc1c[nH]c2ccccc12)C(=O)N[C@@H](Cc1cccc2ccccc12)C(=O)N[C@@H](CCCCN)C(=O)N[C@@H](CCCCN)C(N)=O` [XMP.234] (H-KSKVGWLIQLW[1Nal]KK-NH2), the “C. albicans pmol/30 mm^2 zone” value was “b (No detectable activity up to 5 μg/well)”.

With H-KVKWLIQL-NH2 [XMP.300], the “C. albicans pmol/30 mm^2 zone” value is on record as 1,957 pmol/30 mm^2 zone. For the setting “listed as XMP.300P′”, the “C. albicans pmol/30 mm^2 zone” value is on record as 993 pmol/30 mm^2 zone.

For the molecule H-KSKVGWLIQLFHKA-NH2 [XMP.44], the “C. albicans pmol/30 mm^2 zone” value amounted to 578 pmol/30 mm^2 zone.

With `CC[C@H](C)[C@H](NC(=O)[C@H](CC(C)C)NC(=O)[C@H](Cc1cccc2ccccc12)NC(=O)CNC(=O)[C@@H](NC(=O)[C@H](CCCCN)NC(=O)[C@H](CO)NC(=O)[C@@H](N)CCCCN)C(C)C)C(=O)N[C@@H](CCC(N)=O)C(=O)N[C@@H](CC(C)C)C(=O)N[C@@H](Cc1ccccc1)C(=O)N[C@@H](Cc1c[nH]cn1)C(=O)N[C@@H](CCCCN)C(=O)N[C@@H](Cc1cccc2ccccc12)C(N)=O` [XMP.222] (H-KSKVG[1Nal]LIQLFHK[1Nal]-NH2), the “C. albicans pmol/30 mm^2 zone” value is listed as >2,610 pmol/30 mm^2 zone.

Turning to H-KSKVGKLIQLFHKK-NH2 [XMP.135], the “C. albicans pmol/30 mm^2 zone” value worked out at 428 pmol/30 mm^2 zone.

Take `CC[C@H](C)[C@H](NC(=O)[C@H](CC(C)C)NC(=O)[C@H](Cc1c[nH]c2ccccc12)NC(=O)[C@@H](N)CCCCN)C(=O)N[C@@H](CCC(N)=O)C(=O)N[C@@H](CC(C)C)C(=O)N[C@@H](Cc1ccccc1)C(=O)N[C@@H](Cc1c[nH]cn1)C(=O)N[C@@H](CCCCN)C(=O)N[C@@H](CCCCN)C(N)=O` [Peptide 293]: the “Plate Assay (nmol), pure peptide activity” value came out at 0.215 nmol and the “Plate Assay (nmol), crude peptide activity” value was 1.156 nmol.

Turning to “XMP.409: S - K - 153-157 - K - K, A @ 154 (L) (SEQ ID NO:240) (SKWAIQLKK)”, the “C. albicans pmol/30 mm^2 zone” value was 795 pmol/30 mm^2 zone.

In the case of `CC[C@H](C)[C@H](NC(=O)[C@H](CC(C)C)NC(=O)[C@H](CC(C)C)N(C)C(=O)CNC(=O)[C@@H](NC(=O)[C@H](CCCCN)NC(=O)[C@H](CO)NC(=O)[C@@H](N)CCCCN)C(C)C)C(=O)N[C@@H](CCC(N)=O)C(=O)N[C@@H](CC(C)C)C(=O)N[C@@H](Cc1ccccc1)C(=O)N[C@@H](Cc1c[nH]cn1)C(=O)N[C@@H](CCCCN)C(=O)N[C@@H](CCCCN)C(N)=O` [XMP.261] (H-KSKVG[NMeL]LIQLFHKK-NH2), the “C. albicans pmol/30 mm^2 zone” value turned out to be 867 pmol/30 mm^2 zone.

As to `CC[C@H](C)[C@H](NC(=O)[C@H](CC(C)C)NC(=O)[C@H](Cc1c[nH]c2ccccc12)NC(=O)[C@H](Cc1ccc(N)cc1)NC(=O)[C@@H](NC(=O)[C@H](CCCCN)NC(=O)[C@H](CO)NC(=O)[C@@H](N)CCCCN)C(C)C)C(=O)N[C@@H](CCC(N)=O)C(=O)N[C@@H](CC(C)C)C(=O)N[C@@H](Cc1ccccc1)C(=O)N[C@@H](Cc1c[nH]cn1)C(=O)N[C@@H](CCCCN)C(=O)N[C@@H](CCCCN)C(N)=O` [XMP.134], the “C. albicans pmol/30 mm^2 zone” value stood at 1255 pmol/30 mm^2 zone.

As to H-VKWLIQLFH-NH2 [XMP.296], the “C. albicans pmol/30 mm^2 zone” value is reported as >5,573 pmol/30 mm^2 zone.

Turning to `CC[C@H](C)[C@H](NC(=O)[C@H](CC(C)C)NC(=O)[C@@H](Cc1ccccc1)NC(=O)CNC(=O)[C@@H](NC(=O)[C@H](CCCCN)NC(=O)[C@H](CO)NC(=O)[C@@H](N)CCCCN)C(C)C)C(=O)N[C@@H](CCC(N)=O)C(=O)N[C@@H](CC(C)C)C(=O)N[C@@H](Cc1ccccc1)C(=O)N[C@@H](Cc1c[nH]cn1)C(=O)N[C@@H](CCCCN)C(=O)N[C@@H](CCCCN)C(N)=O` [XMP.128], the “C. albicans pmol/30 mm^2 zone” value worked out at 1179 pmol/30 mm^2 zone.

For `CC[C@H](C)[C@H](NC(=O)[C@H](CC(C)C)NC(=O)[C@H](Cc1c[nH]c2ccccc12)NC(=O)CNC(=O)[C@@H](NC(=O)[C@H](CCCCN)NC(=O)[C@H](CO)NC(=O)[C@@H](N)CCCCN)C(C)C)C(=O)N[C@@H](CCC(N)=O)C(=O)N[C@@H](CC(C)C)C(=O)N[C@@H](Cc1ccccc1)C(=O)N[C@@H](Cc1cccc2ccccc12)C(=O)N[C@@H](CCCCN)C(=O)N[C@@H](Cc1cccc2ccccc12)C(N)=O` [XMP.146] (H-KSKVGWLIQLF[1Nal]K[1Nal]-NH2), the “C. albicans pmol/30 mm^2 zone” value is “b (No detectable activity up to 5 μg/well)”.

On to H-ASKVGWLIQLFHKK-NH2 [XMP.31], for which the “C. albicans pmol/30 mm^2 zone” value worked out at 426 pmol/30 mm^2 zone.

On to H-KSKVGWLIRLFHKK-NH2 [XMP.265], for which the “C. albicans pmol/30 mm^2 zone” value is reported as 2,996 pmol/30 mm^2 zone.

Turning to `CC[C@H](C)[C@H](NC(=O)[C@H](CC(C)C)NC(=O)[C@H](Cc1cccc2ccccc12)NC(=O)CNC(=O)[C@@H](NC(=O)[C@H](CCCCN)NC(=O)[C@H](CO)NC(=O)[C@@H](N)CCCCN)C(C)C)C(=O)N[C@@H](Cc1ccc(N)cc1)C(=O)N[C@@H](CC(C)C)C(=O)N[C@@H](Cc1ccccc1)C(=O)N[C@@H](Cc1c[nH]cn1)C(=O)N[C@@H](CCCCN)C(=O)N[C@@H](CCCCN)C(N)=O` [XMP.224] (H-KSKVG[1Nal]LI[Phe(4-NH2)]LFHKK-NH2), the “C. albicans pmol/30 mm^2 zone” value is given as >2,443 pmol/30 mm^2 zone.

For the molecule H-KVKWLI-NH2 [compound 313], the “Plate Assay (nmol), crude peptide activity” value is reported as more than 11.05 nmol.

As to H-KSKVKWLIQLWHKK-NH2 [XMP.124], the “C. albicans pmol/30 mm^2 zone” value came out at 351 pmol/30 mm^2 zone.

Regarding `CC[C@H](C)[C@H](NC(=O)[C@H](CC(C)C)NC(=O)[C@H](Cc1c[nH]c2ccccc12)NC(=O)CNC(=O)[C@@H](NC(=O)[C@H](CCCCN)NC(=O)[C@H](CO)NC(=O)[C@@H](N)CCCCN)C(C)C)C(=O)N[C@@H](CCC(N)=O)C(=O)N[C@@H](CC(C)C)C(=O)N[C@@H](Cc1c[nH]c2ccccc12)C(=O)N[C@@H](Cc1c[nH]cn1)C(=O)N[C@@H](CCCCN)C(=O)N[C@@H](Cc1cccc2ccccc12)C(N)=O` [XMP.230] (H-KSKVGWLIQLWHK[1Nal]-NH2), the “C. albicans pmol/30 mm^2 zone” value is recorded as >2,386 pmol/30 mm^2 zone.

H-KSKVGWLIQAFHKK-NH2 [XMP.40]: the “C. albicans pmol/30 mm^2 zone” value came to 253 pmol/30 mm^2 zone.

Regarding H-SKVKWLIQLFH-NH2 [XMP.287], the “C. albicans pmol/30 mm^2 zone” value is on record as >3,509 pmol/30 mm^2 zone.

On to H-RRWLIQLRR-NH2 [XMP.336], for which the “C. albicans pmol/30 mm^2 zone” value is reported as >7,332 pmol/30 mm^2 zone. For the setting “listed as XMP.336P′”, the “C. albicans pmol/30 mm^2 zone” value was “h (inactive to 5,268 pmol)”.

For H-VKWLIQLFHKK-NH2 [XMP.289], the “C. albicans pmol/30 mm^2 zone” value is recorded as 1,542 pmol/30 mm^2 zone. Besides, the “C. albicans pmol/30 mm^2 zone” value (listed as XMP.289P′) came to 658 pmol/30 mm^2 zone.

For H-KSKVGLLIQLFHKK-NH2 [XMP.250], the “C. albicans pmol/30 mm^2 zone” value stood at 536 pmol/30 mm^2 zone.

As for `CC[C@H](C)[C@H](NC(=O)[C@H](CC(C)C)NC(=O)[C@@H](N)Cc1c[nH]c2ccccc12)C(=O)N[C@@H](CCC(N)=O)C(=O)N[C@@H](CC(C)C)C(=O)N[C@@H](Cc1ccccc1)C(=O)N[C@@H](Cc1c[nH]cn1)C(=O)N[C@@H](CCCCN)C(=O)N[C@@H](CCCCN)C(N)=O` [Peptide 298], the “Plate Assay (nmol), pure peptide activity” value came out at 1.106 nmol and the “Plate Assay (nmol), crude peptide activity” value was determined as 2.628 nmol.

Regarding Ac-PWLIQLFHKK-OH [XMP.354], the “C. albicans pmol/30 mm^2 zone” value is recorded as 6,361 pmol/30 mm^2 zone.

As to `CC[C@H](C)[C@H](NC(=O)[C@H](CC(C)C)NC(=O)[C@H](Cc1c[nH]c2ccccc12)NC(=O)[C@H](CCCCN)NC(=O)[C@@H](N)CCCCN)C(=O)N[C@@H](CCC(N)=O)C(=O)N[C@@H](CC(C)C)C(=O)N[C@@H](CCCCN)C(N)=O` [XMP.326], the “C. albicans pmol/30 mm^2 zone” value was 2,182 pmol/30 mm^2 zone.

Regarding H-KSKAGWLIQLFHKK-NH2 [XMP.34], the “C. albicans pmol/30 mm^2 zone” value is reported as 319 pmol/30 mm^2 zone.
